# Experiments:
# [1] = tested on: XMP in whole blood; test: XMP in whole blood (Example 5); type: cell-based, human; conditions: 37° C., 8 hours, non-treated = 100%
# Protocol: A ¾ hydrate of Compound A was used s a test compound.
# 450 μL of the blood collected from two healthy individuals by heparinized blood collection (Analyte A and Analyte B) was added to each tube, and 50 μL of a PBS solution of the test compound (0 μg/mL, 10 μg/mL, 30 μg/mL, 100 μg/mL, 300 μg/mL, or 1000 μg/mL in terms of Compound A) for each concentration was added to each tube. The reaction mixture was stirred in an incubator at 37° C. for 8 hours.
# (§1) 400 μL of methanol was added to 100 μL of the blood sample obtained in (1). After stirring, 400 μL of chloroform was added, followed by further stirring. 120 μL of ultrapure water was added thereto, followed by stirring and then centrifugation at 4° C. and 10000×g for 15 min. 400 μL of the aqueous phase was recovered and added to an ultrafiltration tube, followed by centrifugation at 12° C. and 9200×g for 2 hours. The filtrate was dried under reduced pressure at 40° C. for 2 hours by using a centrifugal evaporator. After drying, the resulting product was stored in a freezer at −80° C.
# The samples obtained in (2-1) and (2-2) were returned to room temperature and 40 μL of ultrapure water was added to each sample. The mixture was stirred and centrifuged at 4° C. and 21500×g for 5 min. 35 μL of the supernatant was transferred to a vial. After storage at 4° C., XMP in samples was determined in the LC-MS/MS determination instrument, LC conditions and MS/MS conditions described in Example 3 (3).
# Amounts of XMP (%) were calculated assuming that amounts of XMP in a non-Compound A treated group are defined as 100%.
# [2] = tested on: XMP in human myeloid leukemia cells SKM-1; test: XMP in human myeloid leukemia cells SKM-1 (LC-MS/MS); type: cell-based; conditions: 24 hours; for Amount of XMP (%): non-treated = 100%; for Decline rate of XMP: 100−amount of XMP (%)
# Protocol: (§2) A ¾ hydrate of Compound A was used as a test compound.
# SKM-1 was used as a human myeloid leukemia cell.
# 2×10^7 human myeloid leukemia cells were suspended in a culture flask containing 18 mL of an RPMI1640 medium (manufactured by Life Technologies, Inc.). 2 mL of a PBS solution of the test compound (0 μg/mL, 10 μg/mL, 30 μg/mL, 100 μg/mL, 300 μg/mL, or 1000 μg/mL in terms of Compound A) was added to the flask which was then incubated at 37° C. under 5% CO2 for 24 hours. After centrifugation at 20° C. and 300×g for 3 min, the supernatant was removed and suspended in 10 mL of a PBS solution. 10 μL of the suspension was aliquoted and cells were counted using TC10 (manufactured by BioRad). After centrifugation and 300×g for 5 min, the supernatant was removed. After stirring with addition of 1000 μL of methanol, 500 μL of ultrapure water was added thereto, followed by further stirring. 600 μL of the reaction solution was divided into each of two tubes, and 400 μL of chloroform was added to each tube. The reaction solution was stirred and then centrifuged at 4° C. and 10000×g for 15 min. 400 μL of the aqueous phase was recovered and added to an ultrafiltration tube, followed by centrifugation at 12° C. and 9200×g for about 2 hours. The filtrates were pooled in one tube and then dried under reduced pressure at 40° C. for 2 hours by using a centrifugal evaporator. After drying, the resulting product was stored in a freezer at −80° C.
# The samples obtained in (1) were returned to room temperature, to each of which 50 μL of 5 mmol/L ammonium formate containing 4 ng/μL of 2′-fluoro-2′-deoxycytidine monophosphate was then added, followed by stirring. 12.5 μL of the supernatant was transferred to a vial, and XMP in the samples was determined in the following determining conditions.
# Amounts of XMP (%) were calculated according to the following equation, assuming that the XMP value of a non-Compound A treated group is defined as 100%.
# Amount of XMP (%)=((peak area of XMP)/((peak area of 2′-fluoro-2′-deoxycytidine monophosphate)×(number of cells)))/((peak area of XMP of untreated group)/((peak area of 2′-fluoro-2′-deoxycytidine monophosphate of untreated group) (number of cells of untreated group)))×100
# The decline rate of XMP (%) was calculated according to the following equation.
# Decline rate of XMP (%)=100−amount of XMP (%)
# [3] = tested on: GMP in whole blood; test: GMP in whole blood (Example 8); type: cell-based, human; conditions: 37° C., 8 hours, non-treated = 100%
# Protocol: as §2
# 450 μL of the blood collected from healthy individuals by heparinized blood collection was added to each tube, and 50 μL of a PBS solution of the test compound (0 μg/mL, 1 μg/mL, 10 μg/mL, or 100 μg/mL in terms of Compound A) for each concentration was added to each tube. The reaction mixture was stirred in an incubator at 37° C. for 8 hours.
# as §1
# The samples obtained in (2) were returned to room temperature and 40 μL of ultrapure water was added to each sample. The mixture was stirred and centrifuged at 4° C. and 21500×g for 5 min. 35 μL of the supernatant was transferred to a vial. After storage at 4° C., XMP, GMP and GTP in the samples were determined in the LC-MS/MS determination instrument and LC conditions described in Example 3 (3), and MS/MS conditions shown in Table 15.
# Amounts of XMP, GMP and GTP (%) were calculated assuming that the XMP, GMP and GTP values of a non-Compound A treated group (peak area value) are defined as 100%.
smiles,measurement,setting,value
"NC(=O)c1nc[nH]c1O [Compound A, 5-Hydroxy-1H-imidazole-4-carboxamide]",Amount of XMP (%) Analyte A Whole blood,[1]; Compound A 1 μg/mL,57%
same,Amount of XMP (%) Analyte B Whole blood,[1]; Compound A 1 μg/mL,44%
same,Amount of XMP (%) Analyte A Whole blood,[1]; Compound A 3 μg/mL,53%
same,Amount of XMP (%) Analyte B Whole blood,[1]; Compound A 3 μg/mL,27%
same,Amount of XMP (%) Analyte A Whole blood,[1]; Compound A 10 μg/mL,47%
same,Amount of XMP (%) Analyte B Whole blood,[1]; Compound A 10 μg/mL,15%
same,Amount of XMP (%) Analyte A Whole blood,[1]; Compound A 30 μg/mL,26%
same,Amount of XMP (%) Analyte B Whole blood,[1]; Compound A 30 μg/mL,11%
same,Amount of XMP (%) Analyte A Whole blood,[1]; Compound A 100 μg/mL,15%
same,Amount of XMP (%) Analyte B Whole blood,[1]; Compound A 100 μg/mL,9%
same,Amount of XMP (%),"[2]; SKM-1, Compound A 1 μg/mL",57%
same,Decline rate of XMP,"[2]; SKM-1, Compound A 1 μg/mL",43%
same,Amount of XMP (%),"[2]; SKM-1, Compound A 10 μg/mL",45%
same,Decline rate of XMP,"[2]; SKM-1, Compound A 10 μg/mL",55%
same,Amount of XMP (%),"[2]; SKM-1, Compound A 100 μg/mL",17%
same,Decline rate of XMP,"[2]; SKM-1, Compound A 100 μg/mL",83%
same,Amount of each compound in whole blood (%) GMP,[3]; Compound A 1 μg/mL,85%
same,Amount of each compound in whole blood (%) GMP,[3]; Compound A 10 μg/mL,85%
same,Amount of each compound in whole blood (%) GMP,[3]; Compound A 100 μg/mL,91%

# Reference: patent US20160320368A1, “METHOD AND APPARATUS FOR PREDICTING EFFECTIVE DOSE OR SENSITIVITY OF 5-HYDROXY-1H-IMIDAZOLE-4-CARBOXAMIDE, METHOD FOR DETERMINING AMOUNT OF XANTHOSINE MONOPHOSPHATE, AND TREATMENT AGENT AND METHOD FOR TREATING MYELODYSPLASTIC SYNDROME” (FUJIFILM Corporation, priority 2014, published 2016)
